{"source": "patent US5608075A", "about": "(priority 1995, dated 1997)", "key": {"pressor response to AII": {"test_system": "pressor response to AII", "assay": "Inhibition of the pressor response to AII in conscious dogs", "assay_type": "in vivo, dog", "description": "(§1) The hypotensive effects of 2-butyl-4-chloro-1-[2'-(1H-tetrazol-5-yl)biphenyl-4-yl)methyl]-5-hydroxymethylimidazole sodium salt were compared before and after furosemide administration to conscious dogs. […] Plasma renin activity (PRA) in these animals was 1.5±0.5 ng AI/ml/hr. Four days later, furosemide was given to three of these dogs at 10 mg/kg im at 18 and 2 hours before the experiment and increased PRA to 19.9±7.2 ng AI/ml/hr. […] Thus a combined therapy of these two classes of drugs will be likely to increase the response rate to therapy among hypertensive patients."}, "[1]": {"test_system": "blood pressure in conscious dogs", "assay": "Hypotensive effects in conscious dogs before and after furosemide", "assay_type": "in vivo, dog", "conditions": "cumulative iv 0.3 to 3 mg/kg", "description": "as §1"}, "[2]": {"assay_type": "physicochemical", "conditions": "25° C., overnight equilibration", "excerpt": "From these facts it was concluded that the minor endotherm corresponds to an enantiotropic polymorphic transition. The major endotherm is the melting of the high-temperature form. The low-temperature stable polymorph (up to the transition temperature) is designated Form I and the high-temperature stable polymorph is designated Form II. […] Form I is the solid modification consistently obtained by solvent isolation. This was confirmed by recrystallizing the drug substance under varying conditions and analyzing by XRPD. Form II has been obtained only from DSC or related high temperature experiments."}, "[3]": {"assay": "Solubility studies in nonaqueous solvents at 25° C.", "assay_type": "physicochemical", "conditions": "overnight equilibration; for solubility: organic solvent or mixture, isopropyl acetate"}, "[4]": {"test_system": "blood pressure in renal hypertensive rats", "assay": "Antihypertensive effects in renal hypertensive rats (left renal artery ligation)", "assay_type": "in vivo, rat", "description": "This procedure increases blood pressure by increasing renin production with consequent elevation of AII levels. Compounds are administered orally at 100 mg/kg and/or intravenously via a cannula in the jugular vein at 10 mg/kg. Arterial blood pressure is continuously measured directly through a carotid artery cannula and recorded using a pressure transducer and a polygraph. Blood pressure levels after treatment are compared to pretreatment levels to determine the antihypertensive effects of the compounds (See Table 6)."}, "AT1 receptor": {"test_system": "AT1 receptor", "conditions": "cited from earlier work"}, "AII": {"test_system": "AII", "conditions": "cited from earlier work"}, "[5]": {"test_system": "renal vasoconstrictor effect of indomethacin and meclofenamate", "conditions": "dogs; cited from earlier work"}, "arterial pressure": {"test_system": "arterial pressure", "conditions": "cited from earlier work"}, "[6]": {"test_system": "renal vasoconstrictor effect of indomethacin", "conditions": "dogs with non-hypotensive hemorrhage; cited from earlier work"}, "plasma renin": {"test_system": "plasma renin", "assay": "Plasma renin activity (PRA) in conscious dogs", "assay_type": "in vivo, dog", "conditions": "furosemide 10 mg/kg im at 18 and 2 hours before the experiment, three dogs; PRA before furosemide 1.5±0.5", "description": "as §1"}}, "note": "Where a name gives a salt, the structure may show the parent alone.", "data": [{"smiles": "CCCCc1nc(Cl)c(CO)n1Cc1ccc(-c2ccccc2-c2nn[nH]n2)cc1", "note": "[2-butyl-4-chloro-1-[2'-(1H-tetrazol-5-yl)biphenyl-4-yl)methyl]-5-hydroxymethylimidazole sodium salt]", "values": [{"measurement": "inhibition of the pressor response to AII", "setting": "pressor response to AII; cumulative iv 0.3 to 3 mg/kg, AII 0.1 μg/kg iv, 10 min post dose, before furosemide", "value": "effective in inhibiting the pressor response to AII"}, {"measurement": "inhibition of the pressor response to AII after furosemide", "setting": "pressor response to AII; cumulative iv, furosemide-treated dogs", "value": "inhibited the pressor response to AII at the two higher doses"}, {"measurement": "decrease in blood pressure after furosemide", "setting": "[1]; furosemide-treated dogs", "value": "significant decrease in blood pressure in a dose-dependent manner"}, {"measurement": "blood pressure lowering in normotensive conscious dogs", "setting": "[1]; n=4, before furosemide", "value": "did not lower blood pressure"}]}, {"smiles": "CCCCc1nc(Cl)c(CO)n1Cc1ccc(-c2ccccc2-c2nnn[nH]2)cc1.[K]", "note": "[Form I, 2-n-butyl-4-chloro-1-[(2'-(tetrazol-5-yl)-1,1'-biphenyl-4-yl)-methyl]-1H-imidazole-5-methanol potassium salt]", "values": [{"measurement": "polymorph conversion in isopropyl acetate", "setting": "[2]", "value": "no conversion of either Form was observed"}, {"measurement": "solubility in ethyl acetate", "setting": "[3]; ethyl acetate", "value": "~ 0.3 mg/g"}, {"measurement": "solubility in isopropanol", "setting": "[3]; isopropanol", "value": "~ 35 mg/g"}, {"measurement": "solubility in methyl ethyl ketone", "setting": "[3]; methyl ethyl ketone", "value": "~ 1 mg/g"}, {"measurement": "solubility", "setting": "[3]", "value": 18, "unit": "µg/mL"}]}, {"smiles": "CCCCc1nc(Cl)c(CO)n1Cc1ccc(-c2ccccc2-c2nn[nH]n2)cc1", "note": "[Form II, 2-n-butyl-4-chloro-1-[(2'-(tetrazol-5-yl)-1,1'-biphenyl]-1H-imidazole-5-methanolpotassium salt]", "values": [{"measurement": "polymorph conversion in isopropanol, methyl ethyl ketone and ethyl acetate", "setting": "[2]", "value": "converts to Form I after overnight equilibration"}, {"measurement": "polymorph conversion in isopropyl acetate", "setting": "[2]", "value": "no conversion of either Form was observed"}, {"measurement": "solubility", "setting": "[3]", "value": 41, "unit": "µg/mL"}]}, {"smiles": "CCCCc1nc(Cl)c(CO)n1Cc1ccc(-c2ccccc2-c2nn[nH]n2)cc1", "note": "[Losartan, 2-butyl-4-chloro-1-[(2'-tetrazol-5-yl)-biphenyl-4-yl]methyl]-5-(hydroxymethyl)imidazole potassium salt]", "values": [{"measurement": "Antihypertensive Effects in Renal Hypertensive Rats, Intravenous Activity", "setting": "[4]; intravenous, 10 mg/kg", "value": "+ (Significant decrease in blood pressure at 10 mg/kg or less)"}, {"measurement": "Antihypertensive Effects in Renal Hypertensive Rats, Oral Activity", "setting": "[4]; oral, 100 mg/kg", "value": "+ (Significant decrease in blood pressure at 100 mg/kg or less)"}, {"measurement": "AII antagonist activity, oral", "setting": "AT1 receptor", "value": "orally active AII antagonists"}]}, {"smiles": "CNCC(=O)N[C@@H](CCCN=C(N)N)C(=O)N[C@H](C(=O)N[C@@H](Cc1ccc(O)cc1)C(=O)N[C@H](C(=O)N[C@@H](Cc1cnc[nH]1)C(=O)N1CCC[C@H]1C(=O)N[C@@H](C)C(=O)O)C(C)C)C(C)C", "note": "[Saralasin, [Sar^1, Ala^8] AII]", "values": [{"measurement": "block of effects of AII on the blood pressure", "setting": "AII; pithed rats", "value": "blocks the effects of AII on the blood pressure of pithed rats"}, {"measurement": "competitive antagonism of the actions of AII", "setting": "AII; rat, in vivo", "value": "one of the most potent competitive antagonists of the actions of AII"}, {"measurement": "inhibition of renal vasoconstrictor effect of indomethacin and meclofenamate", "setting": "[5]", "value": "inhibit the renal vasoconstrictor effect of indomethacin and meclofenamate in dogs"}, {"measurement": "oral effectiveness", "setting": "arterial pressure; oral doses", "value": "oral doses being ineffective"}, {"measurement": "duration of pharmacological effects", "setting": "arterial pressure; parenteral administration", "value": "relatively short-lasting"}, {"measurement": "lowering of arterial pressure", "setting": "arterial pressure; when the (elevated) pressure is dependent on circulating AII", "value": "lower arterial pressure in mammals and man"}, {"measurement": "pressor effects (agonistic character)", "setting": "arterial pressure; when the pressure is not sustained by AII", "value": "generally elicits pressor effects when the pressure is not sustained by AII"}]}, {"smiles": "C[C@H](CS)C(=O)N1CCC[C@H]1C(=O)O", "note": "[captopril]", "values": [{"measurement": "reversal of renal vasoconstrictor effect of indomethacin", "setting": "[6]", "value": "reverse the renal vasoconstrictor effect of indomethacin in dogs"}]}, {"smiles": "NS(=O)(=O)c1cc(C(=O)O)c(NCc2ccco2)cc1Cl", "note": "[furosemide]", "values": [{"measurement": "plasma renin activity (PRA) after furosemide", "setting": "plasma renin", "value": "19.9±7.2", "unit": "ng AI/ml/hr"}]}]}
